Measured values taken from patent publication US9581587B2, “Sperm staining and sorting methods” (INGURAN, LLC, priority 2011, dated 2017).

Experiments:
sperm [1] = experiment: Post thaw motility and percent intact acrosomes of sex sorted, frozen-thawed sperm (Example 1); format: cell-based, bovine; settings: average over all bulls; for Motility Average 3 Hour: post thaw 3 hours, treatments as E1
Experimental: Sperm was collected from 10 different bulls on a routine collection schedule using an artificial vagina over the course of 4 days. The 10 bulls included both Jersey bulls and Holstein bulls. All ejaculates contained greater than 60% progressive motility and greater than 70% morphological normal sperm. Antibiotics were added within 15 minutes of collection.
Red food dye treatment 40%—A reduced volume of red food dye No. 40 control was established. Sperm was diluted to 160×10^6 sperm per ml in a modified TALP buffer, as described in Table 1, at a pH of 7.4. Samples collected from Jersey bulls were incubated with 16 μl of Hoechst 33342 per 2 ml of sample for between 45 and 60 minutes at 34° C., while samples collected from Holstein bulls were incubated 17 μl of Hoechst 33342 per 2 ml of sample for between 45 and 60 minutes at 34° C. After incubation an equal volume of a second modified TALP was added reducing the concentration to 80×10^6. The second modified TALP includes the components described in Table 1 with the addition of 4% egg yolk, 40 μM red food dye No. 40 (20 g/L) and the pH dropped to 5.5 with HCl.
Yellow food dye was included in a second group at an equal concentration. Sperm was diluted to 160×10^6 sperm per ml in a modified TALP buffer, as described in Table 1, at a pH of 7.4. Samples collected from Jersey bulls were incubated with 14 μl of Hoechst 33342 per 2 ml of sample for between 45 and 60 minutes at 34° C., while sample collected from Holstein bulls were incubated 15 μl of Hoechst 33342 per 2 ml of sample for between 45 and 60 minutes at 34° C. After incubation an equal volume of a second modified TALP was added reducing the concentration to 80×10^6. The second modified TALP includes the components described in Table 1 with the addition 4% egg yolk, […] yellow food dye No. 6 and a pH dropped to 5.5 with HCl. […]
Straws were thawed the following day for motility measurements at 0 hour and 3 hours. Percent intact acrosomes were measured as well, and the overall averages over all bulls on each day are illustrated in Table 3. […]

sperm [2] = experiment: Split quality, split enhancing dyes at various concentrations and incubation times (Example 10); format: cell-based, bulls; settings: 15, 45, 125 μM; 30-75 minutes; averaged over 8 bulls
Experimental: Eight bulls were collected, including 4 Jersey bulls, 3 Holstein bulls and one mixed dairy-breed. The ejaculates were collected at concentrations ranging from 1700×10^6 sperm/ml to 1100×10^6 sperm/ml and all had progressive motility of a least 60%.
Sperm from each bull was extended to 160 million per ml with a first buffer, (TALP described in table 1 at a pH 7.4) and stained with 64 μM (164/2 mL) Hoechst 33342 at 34° C. Additionally, Phenol Red, Red Food Dye No. 2, Red Food Dye No. 3, and Red Food Dye No. 4, were each tested as split enhancing dyes in the first buffer at concentrations of 15 μM, 45 μM and 125 μM. For each bull, each concentration of each dye was incubated for periods of 30 minutes, 45 minutes, 60 minutes, and 75 minutes were utilized before a second buffer with an additional dye was applied.
Each sample was then extended in an equal volume of a second buffer which comprised a 5.5 pH modified TALP having 25 μM yellow food dye No. 6 (acting as a dead quenching dye) in addition to the split enhancing dye provided in the first buffer. The second buffer was applied to every sample at 30 minutes, 45 minutes, 60 minutes, and 75 minutes. A control was additionally taken without any split enhancing dye for every bull at every time interval.
Sorting was performed on a MoFlo SX (Beckman Coulter, USA) in substantially the same manner described in Example 5. After calibration, screen shots of sorting histograms were taken and split quality was measured by peak to valley ratios in the same way described in Example 5 with reference to FIG. 4 and the resulting data, averaged over all 8 bulls, is found in Tables 18-21. Additionally, screen shots of bivariate plots were taken to measure the added dead quenching capacity of the mixed dead quenching and split enhancing dyes.

[3] = system: membrane compromised sperm; experiment: Dead gate intensity, yellow 5 and phenol red at higher concentrations (Example 6); format: cell-based, Jersey bull; settings: Hoechst 12 μL/2 mL
[4] = system: membrane compromised sperm; experiment: Bivariate plots comparing dead quenching dyes (FIG. 3); format: cell-based; settings: three bulls, equal amounts of Hoechst 33342 and of dye
Description: FIG. 3 illustrates comparisons of bivariate plots generated in sex sorting sperm which reflect the intensity of the excited DNA selective fluorescent dye during sorting. Three bulls were stained with equal amounts of Hoechst 33342 and with an equal amount of yellow food dye No. 6 and red food dye No. 40. The region labeled as R4 surrounds what is considered the “dead” sperm population, while the region R1 is centered on viable, oriented sperm. It can be seen that for each bull yellow food dye no.

Compound | Motility Average 3 Hour (sperm [1]) [%] | split enhancing effect compared to control (sperm [2]) | Intensity ([3]; dye 125 μM, pH 7.40) [%] | Intensity ([3]; dye 250 μM, pH 7.40) [%] | Intensity ([3]; dye 500 μM, pH 7.40) [%] | Intensity ([3]; dye 750 μM, pH 7.40) [%] | Intensity ([3]; dye 875 μM, pH 7.40) [%] | Intensity ([3]; dye 1250 μM, second buffer pH 7.40) [%] | quenching of the dead population compared to red food dye No. 40 [4] | Motility Average 0 Hour (sperm [1]; post thaw 0 hour, Red = red food dye No. 40 treatment 40% (16-17 μl Hoechst 33342/2 ml), Yellow = yellow food dye No. 6 (14-15 μl)) [%]
COc1cc(S(=O)(=O)O)c(C)cc1N=Nc1c(O)ccc2cc(S(=O)(=O)O)ccc12 [Red 40, 6-hydroxy-5-[(2-methoxy-5-methyl-4-sulfophenyl)azo]-2-naphthalenesulfonic acid, reference compound] | 47.0 |  |  |  |  |  |  |  |  | 
O=S1(=O)OC(c2ccc(O)cc2)(c2ccc(O)cc2)c2ccccc21 [Phenol Red, phenolsulfonphthalein] |  | provided consistent split improvements at all concentrations after 30 minutes | 85 | 76 | 66 | 56 | 47 | 43 |  | 
O=S(=O)([O-])c1ccc(N=Nc2c(O)ccc3cc(S(=O)(=O)[O-])ccc23)cc1.[Na+].[Na+] [Yellow 6, Disodium 6-hydroxy-5[(4-sulfophenyl)azo]-2-naphthalenesulfononate] | 49.0 |  |  |  |  |  |  |  | superior quenching | 57.7
